ChEMBL document CHEMBL1201862, “PubChem BioAssay data set” (2004)
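Interpolation was linear, between the two tested concentrations surrounding the appropriate level; five concentrations were tested over 48 hours in 96-well plates. At the GI50, growth is halved.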 Activity calls are given as the source filed them. Rule as the data show it: active = GI50 up to about 1.1 µM and inactive = higher. Non-standard residues stand in square brackets, D forms with d. Residues, ends and D or L forms follow the SMILES beside them. ΔPro = O=C(O)[CH]1C=CCN1

Columns and labels:
Experiment in all cases: growth of human tumour cells (NCI), 48 h
HCC 2998 = system: HCC 2998
HOP-62 = system: HOP-62
NCI/ADR-RES = system: NCI/ADR-RES
HT-29 = system: HT-29
UO-31 = system: UO-31
SNB-75 = system: SNB-75
OVCAR-3 = system: OVCAR-3
SF-539 = system: SF-539
U-251 = system: U-251
COLO 205 = system: COLO 205
HCT-116 = system: HCT-116
MDA-N = system: MDA-N
786-0 = system: 786-0
UACC-257 = system: UACC-257
OVCAR-8 = system: OVCAR-8
CCRF-CEM = system: CCRF-CEM
SK-MEL-28 = system: SK-MEL-28
IGROV-1 = system: IGROV-1
SK-MEL-5 = system: SK-MEL-5
A498 = system: A498

Row | SMILES | GI50 (HCC 2998) | GI50 (HOP-62) | GI50 (NCI/ADR-RES) | GI50 (HT-29) | GI50 (UO-31) | GI50 (SNB-75) | GI50 (OVCAR-3) | GI50 (SF-539) | GI50 (U-251) | GI50 (COLO 205) | GI50 (HCT-116) | GI50 (MDA-N) | GI50 (786-0) | GI50 (UACC-257) | GI50 (OVCAR-8) | GI50 (CCRF-CEM) | GI50 (SK-MEL-28) | GI50 (IGROV-1) | GI50 (SK-MEL-5) | GI50 (A498)
1 | Clc1cc(Cl)cc(/N=C/C=C/Nc2cc(Cl)cc(Cl)c2)c1 | 15.2 µM (inactive) | 23.7 µM (inactive) | 16.4 µM (inactive) | 14.7 µM (inactive) | 23.4 µM (inactive) | 13.1 µM (inactive) | 13.7 µM (inactive) | 21.6 µM (inactive) | 17.6 µM (inactive) | 16.5 µM (inactive) | 15.5 µM (inactive) | 19.4 µM (inactive) | 17.3 µM (inactive) | 33.7 µM (inactive) | 20.4 µM (inactive) | 20.8 µM (inactive) | 25.3 µM (inactive) | 22.6 µM (inactive) | 15.1 µM (inactive) | 21 µM (inactive)
2 | O=C(O)C1C=CCN1C(=O)C1C=CCN1C(=O)C1C=CCN1 (stereo not given) (H-[ΔPro]-[ΔPro]-[ΔPro]-OH; configuration not given here) | > 100 µM (inactive) | > 100 µM (inactive) | > 100 µM (inactive) | > 100 µM (inactive) | > 100 µM (inactive) | > 100 µM (inactive) | > 100 µM (inactive) | > 100 µM (inactive) | > 100 µM (inactive) | > 100 µM (inactive) | > 100 µM (inactive) | > 100 µM (inactive) | > 100 µM (inactive) | > 100 µM (inactive) | > 100 µM (inactive) | > 100 µM (inactive) | > 100 µM (inactive) | > 100 µM (inactive) | > 100 µM (inactive) | > 100 µM (inactive)
3 | O=C(O)[C@@H]1C[C@@H](O)CN1C(=O)OCc1ccccc1 | > 100 µM (inactive) | > 100 µM (inactive) | > 100 µM (inactive) | > 100 µM (inactive) | > 100 µM (inactive) | 1.16 µM (inactive) | > 100 µM (inactive) | > 100 µM (inactive) | > 100 µM (inactive) | > 100 µM (inactive) | > 100 µM (inactive) | > 100 µM (inactive) | > 100 µM (inactive) | > 100 µM (inactive) | > 100 µM (inactive) | > 100 µM (inactive) | > 100 µM (inactive) | > 100 µM (inactive) | > 100 µM (inactive) | > 100 µM (inactive)
4 | O=C(Cc1ccccc1)NNc1nc(NNC(=O)c2ccncc2)nc(Nc2ccc([N+](=O)[O-])cc2)n1 | > 10 µM (inactive) | > 10 µM (inactive) | > 10 µM (inactive) | > 10 µM (inactive) | > 10 µM (inactive) | > 10 µM (inactive) | > 10 µM (inactive) | > 10 µM (inactive) | > 10 µM (inactive) | > 10 µM (inactive) | > 10 µM (inactive) | 8.59 µM (inactive) | > 10 µM (inactive) | 5.69 µM (inactive) | > 10 µM (inactive) | 7.57 µM (inactive) | > 10 µM (inactive) | > 10 µM (inactive) | > 10 µM (inactive) | > 10 µM (inactive)
5 | O=C1C(Cl)=C(N2CCC[C@@H]2CO)C(=O)c2c(O)ccc(O)c21 | 2.02 µM (inactive) | 1.58 µM (inactive) | 2.41 µM (inactive) | 2.15 µM (inactive) | 1.82 µM (inactive) | 1.69 µM (inactive) | 1.67 µM (inactive) | 1.92 µM (inactive) | 1.83 µM (inactive) | 1.55 µM (inactive) | 1.44 µM (inactive) | 1.54 µM (inactive) | 1.76 µM (inactive) | 1.76 µM (inactive) | 2 µM (inactive) | 0.244 µM (active) | 1.82 µM (inactive) | 1.79 µM (inactive) | 1.01 µM (active) | 2.9 µM (inactive)
6 | O=S(=O)(c1ccccc1)C1CN(Cc2ccccc2)CCN(Cc2ccccc2)C1 | > 78 µM (inactive) | > 76.2 µM (inactive) | 17.9 µM (inactive) | 24.5 µM (inactive) | 19.3 µM (inactive) | 61.5 µM (inactive) | 26.6 µM (inactive) | 77.6 µM (inactive) | 33 µM (inactive) | 30 µM (inactive) | 18.1 µM (inactive) | 6.46 µM (inactive) | > 74 µM (inactive) | 26.6 µM (inactive) | 14.4 µM (inactive) | 5.14 µM (inactive) | > 71 µM (inactive) | 35.8 µM (inactive) | 18.6 µM (inactive) | > 100 µM (inactive)
7 | COc1ccc(NC(=O)CC(=O)n2nc(-c3ccccc3)c(/N=N/c3ccc(C)cc3)c2-c2ccccc2)cc1 | 62.8 µM (inactive) | 10.4 µM (inactive) | 25.7 µM (inactive) | > 88.3 µM (inactive) | 29.3 µM (inactive) | 16.4 µM (inactive) | 43 µM (inactive) | 25.4 µM (inactive) | 20.8 µM (inactive) | > 100 µM (inactive) | 34.1 µM (inactive) | > 100 µM (inactive) | 19.2 µM (inactive) | 57.8 µM (inactive) | 21.7 µM (inactive) | > 84.7 µM (inactive) | > 91.6 µM (inactive) | 16.9 µM (inactive) | > 65.2 µM (inactive) | > 49.3 µM (inactive)
8 | Cc1c(C(=O)OCc2ccccc2)[n+]([O-])c2ccccc2[n+]1[O-] | 30.8 µM (inactive) | 22.3 µM (inactive) | 26.2 µM (inactive) | 60.8 µM (inactive) | 27.8 µM (inactive) | 15.6 µM (inactive) | 30.3 µM (inactive) | 42.1 µM (inactive) | 40.8 µM (inactive) | 18.5 µM (inactive) | 25.1 µM (inactive) | 41.6 µM (inactive) | 44.1 µM (inactive) | 17.8 µM (inactive) | 48.6 µM (inactive) | < 0.01 µM (active) | 66.1 µM (inactive) | 13 µM (inactive) | 22 µM (inactive) | 36.1 µM (inactive)
9 | O=C(CCc1ccc(O)c(O)c1)NCCc1ccc(O)c(O)c1 | > 100 µM (inactive) | > 100 µM (inactive) | > 100 µM (inactive) | > 100 µM (inactive) | > 100 µM (inactive) | > 100 µM (inactive) | 94.2 µM (inactive) | > 100 µM (inactive) | 17.3 µM (inactive) | > 100 µM (inactive) | 42.8 µM (inactive) | 18.1 µM (inactive) | 18.6 µM (inactive) | > 100 µM (inactive) | 18.3 µM (inactive) | 27.9 µM (inactive) | > 100 µM (inactive) | > 100 µM (inactive) | > 100 µM (inactive) | > 100 µM (inactive)
10 | CCc1cc2c(c3c1CCCC3=O)CC1(C2)Cc2cc(CC)c3c(c2C1)C(=O)CCC3 | > 100 µM (inactive) | > 100 µM (inactive) | > 100 µM (inactive) | 76.2 µM (inactive) | > 100 µM (inactive) | 30.5 µM (inactive) | 86.3 µM (inactive) | > 100 µM (inactive) | 87.5 µM (inactive) | > 100 µM (inactive) | 61.1 µM (inactive) | > 100 µM (inactive) | > 100 µM (inactive) | 57.4 µM (inactive) | > 100 µM (inactive) | 26.7 µM (inactive) | > 100 µM (inactive) | > 100 µM (inactive) | 54.3 µM (inactive) | > 100 µM (inactive)
11 | COC1C(O)C(C)OC(OC2C(Oc3cccc4c(O)c5c(=O)oc6ccc(C)c7c(=O)oc(c34)c5c67)OC(C)C(O)C2O)C1O (stereo not given) | 2.16 µM (inactive) | 1.77 µM (inactive) | 11.8 µM (inactive) | 2.63 µM (inactive) | 4.59 µM (inactive) | 2.49 µM (inactive) | 2.34 µM (inactive) | 1.51 µM (inactive) | 0.959 µM (active) | 3.41 µM (inactive) | 0.731 µM (active) | 2.01 µM (inactive) | 0.91 µM (active) | 2.31 µM (inactive) | 1.15 µM (inactive) | 0.836 µM (active) | 1.6 µM (inactive) | 1.87 µM (inactive) | 1.59 µM (inactive) | 2.04 µM (inactive)
12 | Cc1cc(-c2nc3cc(F)ccc3s2)ccc1NC(=O)C(C)N (stereo not given) | 0.097 µM (active) | 3.97 µM (inactive) | 4.79 µM (inactive) | 4.12 µM (inactive) | 3.7 µM (inactive) | 5.05 µM (inactive) | 3.41 µM (inactive) | 10.4 µM (inactive) | 4.36 µM (inactive) | 9.23 µM (inactive) | 3.29 µM (inactive) | 4.21 µM (inactive) | 3.76 µM (inactive) | 4.31 µM (inactive) | 4.54 µM (inactive) | 0.64 µM (active) | 5.25 µM (inactive) | 0.0408 µM (active) | 9.84 µM (inactive) | 3.77 µM (inactive)
